# Assay results from patent US5574009A, “Method of stimulating myelination of cells” (Trustees of the University Of Pennsylvania, priority 1994, dated 1996).
# Tested on: neonatal rat optic nerve cultures
# Test: Mitomycin C treatment of optic nerve cultures
# Type: cell-based
# Settings: 25 μg/ml for 30 minutes, PND-1, then 24 or 48 hours
# Description: A stock solution of 0.5 mg/ml mitomycin C (Sigma) in HBSS (Gibco) was prepared and stored at 4° C. in the dark. Cultures were treated with 25 μg/ml mitomycin C diluted in N2/0.5% FCS for 30 minutes at 37° C. in the dark. The cultures were washed twice with N2/0.5% FCS and cultured for an additional 24 or 48 hours.
# To test whether inhibition of proliferation per se affected the timing of GalC(+) appearance, optic nerve cultures prepared on PND-1 were treated with mitomycin C. After plating, the cells were incubated with 25 μg/ml mitomycin C for 30 minutes. After washing, the cultures were carried for an additional 24 or 48 hours.
compound,measurement,value
CO[C@@]12[C@H](COC(N)=O)C3=C(C(=O)C(C)=C(N)C3=O)N1C[C@@H]1N[C@@H]12 [mitomycin C],numbers of A2B5(+) cells,Decreased numbers of A2B5(+) cells
same,proportion of GalC(+) cells,without a concomitant increase in the proportion of GalC(+) cells
